The values below are quoted from earlier work in US8501405B2, “Real-time sequencing methods and systems” (Pacific Biosciences of California, Inc., priority 2009, dated 2013).

Read-outs that look alike come from different tables or passages of the source.

Experiment in data set [1]: not given
The source holds these as a separate data set.

Experiment in data set [2]: not given
This is another data set of the same source.

For data set [3] the following is noted: DNA polymerases with reverse transcriptase activity; available values for DNA-dependent DNA polymerization.
The mark [4] stands for this setting: DNA polymerases with reverse transcriptase activity, available values for DNA-dependent DNA polymerization.
[5] abbreviates: reverse transcriptases and RNA-dependent RNA polymerases, * wild-type or published mutants.

With “E. coli pol I: DNA polymerase with reverse transcriptase activity”, the “Strand-displacement DNA synthesis” value under setting [4] is on record as “yes (degrades”. In addition, the “Processivity (bases)” value in data set [1] (setting [4]) is ~50 bases. In addition, the “Maximum speed (bases/s)” value in data set [2] (setting [4]) is reported as 17 bases/s.

In the case of “phi29: DNA polymerase with reverse transcriptase activity”, the “Strand-displacement DNA synthesis” value under setting [4] was “yes”. For the same molecule, the “Processivity (bases)” value in data set [1] (setting [4]) is given as >70,000 bases. Also, the “Maximum speed (bases/s)” value in data set [2] (setting [4]) is listed as 100 bases/s. The “Activity with phospholinked nucleotides” value in data set [3] is on record as “yes”.

B1: Thermus thermophilus: DNA polymerase with reverse transcriptase activity (protein, UniProt P52028 1-834, looked up)
DNA polymerase I, thermostable: MEAMLPLFEPKGRVLLVDGHHLAYRTFFALKGLTTSRGEPVQAVYGFAKSLLKALKEDGYKAVFVVFDAKAPSFRHEAYEAYKAGRAPTPEDFPRQLALIKELVDLLGFTRLEVPGYEADDVLATLAKKAEKEGYEVRILTADRDLYQLVSDRVAVLHPEGHLITPEWLWEKYGLRPEQWVDFRALVGDPSDNLPGVKGIGEKTALKLLKEWGSLENLLKNLDRVKPENVREKIKAHLEDLRLSLELSRVRTDLPLEVDLAQGREPDREGLRAFLERLEFGSLLHEFGLLEAPAPLEEAPWPPPEGAFVGFVLSRPEPMWAELKALAACRDGRVHRAADPLAGLKDLKEVRGLLAKDLAVLASREGLDLVPGDDPMLLAYLLDPSNTTPEGVARRYGGEWTEDAAHRALLSERLHRNLLKRLEGEEKLLWLYHEVEKPLSRVLAHMEATGVRLDVAYLQALSLELAEEIRRLEEEVFRLAGHPFNLNSRDQLERVLFDELRLPALGKTQKTGKRSTSAAVLEALREAHPIVEKILQHRELTKLKNTYVDPLPSLVHPRTGRLHTRFNQTATATGRLSSSDPNLQNIPVRTPLGQRIRRAFVAEAGWALVALDYSQIELRVLAHLSGDENLIRVFQEGKDIHTQTASWMFGVPPEAVDPLMRRAAKTVNFGVLYGMSAHRLSQELAIPYEEAVAFIERYFQSFPKVRAWIEKTLEEGRKRGYVETLFGRRRYVPDLNARVKSVREAAERMAFNMPVQGTAADLMKLAMVKLFPRLREMGARMLLQVHDELLLEAPQARAEEVAALAKEAMEKAYPLAVPLEVEVGMGEDWLSAKG
Regarding B1, the “Processivity (bases)” value in data set [1] (setting [4]) is on record as 300 bases. For the same molecule, the “Maximum speed (bases/s)” value in data set [2] (setting [4]) is reported as 120 bases/s.

B2: phi6: RNA-dependent RNA polymerase (protein, UniProt P11124 2-665, looked up)
RNA-directed RNA polymerase: PRRAPAFPLSDIKAQMLFANNIKAQQASKRSFKEGAIETYEGLLSVDPRFLSFKNELSRYLTDHFPANVDEYGRVYGNGVRTNFFGMRHMNGFPMIPATWPLASNLKKRADADLADGPVSERDNLLFRAAVRLMFSDLEPVPLKIRKGSSTCIPYFSNDMGTKIEIAERALEKAEEAGNLMLQGKFDDAYQLHQMGGAYYVVYRAQSTDAITLDPKTGKFVSKDRMVADFEYAVTGGEQGSLFAASKDASRLKEQYGIDVPDGFFCERRRTAMGGPFALNAPIMAVAQPVRNKIYSKYAYTFHHTTRLNKEEKVKEWSLCVATDVSDHDTFWPGWLRDLICDELLNMGYAPWWVKLFETSLKLPVYVGAPAPEQGHTLLGDPSNPDLEVGLSSGQGATDLMGTLLMSITYLVMQLDHTAPHLNSRIKDMPSACRFLDSYWQGHEEIRQISKSDDAILGWTKGRALVGGHRLFEMLKEGKVNPSPYMKISYEHGGAFLGDILLYDSRREPGSAIFVGNINSMLNNQFSPEYGVQSGVRDRSKRKRPFPGLAWASMKDTYGACPIYSDVLEAIERCWWNAFGESYRAYREDMLKRDTLELSRYVASMARQAGLAELTPIDLEVLADPNKLQYKWTEADVSANIHEVLMHGVSVEKTERFLRSVMPR
B2: the “Strand-displacement DNA synthesis” value (reverse transcriptases and RNA-dependent RNA polymerases) is “yes”. Further, in data set [1] (setting [5]), the “Processivity (bases)” value is recorded as 13,500 bases. In addition, the “Maximum speed (bases/s)” value in data set [2] (setting [5]) is recorded as 120 bases/s.
